Values joined by “and” are separate entries in the source; they are usually repeats but may differ in a detail not shown here. Equal values may be shown once.
Columns and labels:
CAD de peuplier [1] = molecular target: T1, CAD de peuplier (Populus deltoides, UniProt P31657); assay: In vitro inhibition of isolated poplar cinnamyl alcohol dehydrogenase (CAD) at 2 mM; format: biochemical; conditions: 2mM, CAD de peuplier; for inhibition at 2000 µM: read-out: Inhibition à 2mM %
T1 construct: CAD de peuplier isolée selon la méthode deSARNI et al,1984; from tissue; host or cells: poplar plant material
T1 sequence (P31657 1-357): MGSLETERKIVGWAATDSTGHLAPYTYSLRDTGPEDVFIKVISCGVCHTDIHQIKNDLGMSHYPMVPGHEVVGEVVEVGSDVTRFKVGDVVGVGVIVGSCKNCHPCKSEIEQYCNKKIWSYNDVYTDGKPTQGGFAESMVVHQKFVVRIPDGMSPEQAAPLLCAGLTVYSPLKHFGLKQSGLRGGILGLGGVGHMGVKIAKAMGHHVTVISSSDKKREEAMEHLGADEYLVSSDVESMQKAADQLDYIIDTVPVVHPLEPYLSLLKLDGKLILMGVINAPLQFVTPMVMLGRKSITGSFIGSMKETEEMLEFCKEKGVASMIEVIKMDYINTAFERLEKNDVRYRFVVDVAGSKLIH
Description: Après réacidification à pH2 par de l'acide chlorhydrique 3N et centrifugation, le surnageant contenant les acides cinnamiques est séparé du résidu. Les "poudres alcool-benzène" ainsi hydrolysées sont lavées par de l'eau distillée jusqu'à pH neutre et séchées, sous vide dans un dessiccateur en présence de silica.-gel. Les teneurs en lignines sont estimées par la méthode gravimétriques de KLASON (Tappi Standard method Tl2m) modifiée par EFFLAND. Tappi, 60, p 143-144, 1977. On rapporte dans le tableau 1) suivant les résultats obtenus concernant l'effet mesuré in vitro d'inhibiteurs selon l'invention à une concentration de 2mM vis-à-vis de la CAD de peuplier isolée selon la méthode deSARNI et al,1984,EUROP JOURNAL OF BIOCHEMISTRY, 18(1),139, 259-265 On indique également dans ce tableau les résultats obtenus avec des composés portant des substitutions différentes de ceux mis enoe uvre dans l'invention. Les chiffres indiqués entre parenthèses a côté des formules correspondent aux composés identifiés dans les exemples de préparation 2 et 3.
On rapporte dans le tableau 2 suivant les pourcentages d'inhibition de la CAD obtenus en utilisant, à raison de 2 mM, différents composés capables de complexer Zn.

plants de mais [2] = assay: Soluble phenolic compounds of treated maize plants; format: in vivo; conditions: plants âgés de 30 jours, 80 µM; for FLAVONOIDES / PHENOLS SIMPLES: mean of 3
Method: (§1) Les différentes études dont les résultats sont rapportés ci-après ont été réalisées à partir de plants de mais âgés de 30 jours et traités par l'OHPAS et le NH2PAS à la concentration de 80 µM.
Le traitement des plants par les inhibiteurs ne modifie pas les teneurs en ces composés comme le montrent les résultats rapportés dans le tableau 6 ci-après. Cependant, on constate une baisse importante (40% avec l'OHPAS) des quantités de flavonoïdes.

plants de luzerne = assay: Lignin content of 30-day alfalfa plants; format: in vivo; conditions: plants de luzerne de 30 jours
Description: 6) Effets des inhibiteurs sur la teneur en lignines de plants de luzerne de 30 jours : • Le protocole est le même que celui décrit pour les plants de mais.
On rapporte dans le tableau 7 ci-après les pourcentages d'inhibition obtenus en fonction de la concentration en produit.

plants de mais [3] = assay: Primary metabolism of treated maize plants (soluble proteins, chlorophylls, nucleic acids); format: in vivo; conditions: plants âgés de 30 jours; 80 µM
Method: as §1
Afin d'estimer l'action de l'OHPAS et du NH2PAS sur le métabolisme primaire, les teneurs de trois classes de composés ont été estimées : les protéines solubles, les chlorophyllles et les acides nucléiques.

CAD de peuplier [4] = molecular target: T1, CAD de peuplier; assay: In vitro inhibition of isolated poplar cinnamyl alcohol dehydrogenase (CAD) at 2 mM; format: biochemical; conditions: mode of action study
plants de maïs [5] = assay: Cell-wall polysaccharide content of treated maize plants; format: in vivo; conditions: plants âgés de 30 jours; 80 µM
Method: as §1
Le dosage de l'ensemble des polysaccharides pariétaux mais également de la fraction cellulosique n'a révélé aucune différence significative entre les plants témoins et les plants traités.

plants de maïs [6] = assay: Growth of maize plants treated with the inhibitors (weights, water content); format: in vivo
Method: Des plants de maïs ont été traités pendant 10, 20 ou 30 jours par l'OHPAS et le NH2PAS à deux concentrations (80 et 160 µM).
Les .inhibiteurs sont ajoutés au milieu nutritif.
Les cultures sur vermiculite (20 plants) sont arrosées quotidiennement par 250 ml de milieu (avec ou sans inhibiteurs). Les semis constituent le temps 0 de la culture, l'addition des inhibiteurs au milieu nutritif est réalisée dès l'émergence de la partie aérienne (2 à 3 jours). Les différentes caractéristiques des plants sont estimées après 10, 20 ou 30 jours.
Le traitement par les deux inhibiteurs conduit à des plants de maïs dont les caractéristiques pondérales et les teneurs en eau sont données dans le tableau 4. L'analyse des résultats ne montre aucune différence significative entre les plants traités et les plants témoins. De même, les tailles et l'aspect morphologique des différents lots sont similaires. Toutefois, on constate que le port dressé des maïs est légèrement affecté.

[7] = 10 jours de culture, 160 µm en inhibiteurs
[8] = 10 jours de culture, concentration not given
[9] = 10 jours de culture, concentration not given, mean of 20 plants
[10] = 20 jours de culture, 160 µm en inhibiteurs
[11] = 20 jours de culture, concentration not given
[12] = 30 jours de culture, 160 µm en inhibiteurs
[13] = 30 jours de culture, concentration not given

| SMILES | inhibition at 2000 µM (CAD de peuplier [1]) [%] | % PERTE (phénols simples) (plants de mais [2]) [%] | FLAVONOIDES (plants de mais [2]) | PHENOLS SIMPLES (plants de mais [2]) | % d'inhibition (teneur en lignines) (plants de luzerne; 25 µM) [%] | % d'inhibition (teneur en lignines) (plants de luzerne; 50 µM) [%] | ADN (mg/g PS) (plants de mais [3]) | ARN (mg/g PS) (plants de mais [3]) | Chlorophylles (mg/g PS) (plants de mais [3]) | Protéines solubles (mg/g PS) (plants de mais [3]) | réversibilité de l'inhibition de la CAD (CAD de peuplier [4]) | synthèse de la fraction polysaccharidique de la paroi (plants de maïs [5]) | Poids matériel frais g/plant (plants de maïs [6]; [7]) | Poids matériel sec g/plant (plants de maïs [6]; [7]) | Teneur en eau g/g de poids sec (plants de maïs [6]; [7]) | Poids matériel sec g/plant (plants de maïs [6]; [8]) | Teneur en eau g/g de poids sec (plants de maïs [6]; [8]) | Poids matériel frais g/plant (plants de maïs [6]; [9]) | Poids matériel frais g/plant (plants de maïs [6]; [10]) | Poids matériel sec g/plant (plants de maïs [6]; [10]) | also measured |
| --- | --- | --- | --- | --- | --- | --- | --- | --- | --- | --- | --- | --- | --- | --- | --- | --- | --- | --- | --- | --- | --- |
| CC(C)(C)OC(=O)C[S+]([O-])Nc1ccccc1O (stereo not drawn) [composé 2, N-(o -hydroxy phényl)sulfinamoyl acétate de tertiobutyle] | 90 | 0 | 28 ± 11 mg d'acide gallique par g de matériel | 107 ± 8 mg d'acide gallique par g de matériel | 13 | 31 | 1,35 ± 0,6 mg/g PS | 21,08 ± 0,3 mg/g PS | 7,80 ± 0,3 mg/g PS | 49,50 ± 1 mg/g PS | faiblement réversible | n'apparaîssent pas affecter | 0,98 g/plant | 0,083 g/plant | 10,81 g/g de poids sec | 0,103 g/plant | 18,40 g/g de poids sec | 2,00 g/plant | 2,98 g/plant | 0,300 g/plant | % PERTE (flavonoïdes) (plants de mais [2]; listed as OHPAS): 40% and 42%; Teneur en eau g/g de poids sec (plants de maïs [6]; [10]): 8,93 g/g de poids sec; Poids matériel frais g/plant (plants de maïs [6]; [11]): 3,20 g/plant; Poids matériel sec g/plant (plants de maïs [6]; [11]): 0,318 g/plant; Teneur en eau g/g de poids sec (plants de maïs [6]; [11]): 9,06 g/g de poids sec; Poids matériel frais g/plant (plants de maïs [6]; [12]): 4,52 g/plant; Poids matériel sec g/plant (plants de maïs [6]; [12]): 0,429 g/plant; Teneur en eau g/g de poids sec (plants de maïs [6]; [12]): 9,53 g/g de poids sec; Poids matériel frais g/plant (plants de maïs [6]; [13]): 4,65 g/plant; Poids matériel sec g/plant (plants de maïs [6]; [13]): 0,420 g/plant; Teneur en eau g/g de poids sec (plants de maïs [6]; [13]): 10,07 g/g de poids sec |
| CC(C)(C)OC(=O)C[S+]([O-])Nc1ccccc1N (stereo not drawn) [composé 5, N-(o-Amino phényl)Sulfinamoyl Acétate de tertiobutyle] | 90 | 0 | 25 ± 14 mg d'acide gallique par g de matériel | 101 ± 10 mg d'acide gallique par g de matériel | 20 | 17 | 1,38 ± 0,7 mg/g PS | 19,81 ± 0,2 mg/g PS | 7,69 ± 0,3 mg/g PS | 49,30 ± 2 mg/g PS | faiblement réversible | n'apparaîssent pas affecter | 1,00 g/plant | 0,088 g/plant | 13,36 g/g de poids sec | 0,108 g/plant | 15,70 g/g de poids sec | 1,80 g/plant | 3,25 g/plant | 0,321 g/plant | Inhibition à 2mM % (CAD de peuplier [1]; 2000 µM): 80%; % PERTE (flavonoïdes) (plants de mais [2]): 48%; Teneur en eau g/g de poids sec (plants de maïs [6]; [10]): 9,12 g/g de poids sec; Poids matériel frais g/plant (plants de maïs [6]; [11]): 3,00 g/plant; Poids matériel sec g/plant (plants de maïs [6]; [11]): 0,298 g/plant; Teneur en eau g/g de poids sec (plants de maïs [6]; [11]): 9,07 g/g de poids sec; Poids matériel frais g/plant (plants de maïs [6]; [12]): 4,80 g/plant; Poids matériel sec g/plant (plants de maïs [6]; [12]): 0,458 g/plant; Teneur en eau g/g de poids sec (plants de maïs [6]; [12]): 9,48 g/g de poids sec; Poids matériel frais g/plant (plants de maïs [6]; [13]): 4,40 g/plant; Poids matériel sec g/plant (plants de maïs [6]; [13]): 0,438 g/plant; Teneur en eau g/g de poids sec (plants de maïs [6]; [13]): 9,04 g/g de poids sec |
